# Experimental data as given in patent EP0727211A1, “Use of src SH2 specific compounds to treat a bone resorption disease” (SMITHKLINE BEECHAM CORPORATION, priority 1995, dated 1996).
# Target: T1, human lck SH2 domain (Homo sapiens, UniProt P06239)
# T1 construct: Cloning and expression of human lck SH2 domain containing tags and an enterokinase proteolytic cleavage site; made in house; host or cells: E. coli AR120
# Test: SH2 domain / pY peptide binding assay (ELISA-based, 96 well plate), lck SH2
# Conditions: Ki calculated from IC50 by the expanded equation; Table II
# Protocol: The inhibitory activity of compounds at the different human SH2 domains was determined in vitro using SH2 domains expressed as fusion proteins in E. coli. The SH2 domains used herein were the human forms of the src SH2 domain, Grb2 SH2 domain, lck SH2 domain, fyn SH2 domain, SH-PTP2 SH2 domain, p85 SH2 domain and hcp SH2 domain.
# The fusion proteins containing the src, lck and hcp SH2 domains were expressed as the general sequence: DET1-DET2-spacer-ek-SH2, where DETI, DET2, spacer, ek and SH2 are as described below. DET1 ("defined epitope tag 1") (SEQ ID NO: 1) is an 11 amino acid sequence found in the Human Immunodeficiency Virus Type 1 (HIV-1) envelope protein gp120 (or gp160). Monoclonal antibodies to various epitopes of HIV-1 gp120 (or gp160) are known in the art, see, for example U.S. Patent 5,166,050. One preferred example is monoclonal antibody 178.1 (see, e.g., Thiriart et al., J. Immunol., 143:1832-1836 (1989)), which was prepared by immunization of mice with a yeast-expressed HIV-1 gp160 molecule from strain BH10 (Ratner et al., Nature, 313:277-284 (1985)). This tag was used for detection of expression (by Western blot), for purification of the protein (by affinity chromatography), and for configuring assays in which the fusion protein was captured or immobilized using the 178.1 antibody. DET2 is a hexahistidine sequence tag (SEQ ID NO: 2) which binds to nickel-containing resins and was used for purification purposes. Spacer (SEQ ID NO: 3) was utilized to design a BamH1 restriction site at the indicated position of the construct. The term -ekrefers to a recognition sequence (SEQ ID NO: 4) for the enterokinase protease which provides for the optional removal of the tags from the SH2 domain, thus producing an SH2 domain that contains no extraneous amino acids. SH2 domains which contain no extraneous amino acids are preferable to tagged protein for crystallography studies. SH2 refers to the SH2 domains of different proteins.
# Cloning and expression of human lck SH2 domain containing tags and an enterokinase proteolytic cleavage site (DET1-DET2-spacer-ek-lck SH2).
# A DNA sequence encoding protein ek-lck SH2 was PCR amplified from a cDNA clone containing the human lck gene (Genbank accession number M36881) using the following primers: [formula]
# The PCR product was digested with BamHI and XbaI, followed by isolation of the digested fragment on an agarose gel. The fragment was ligated into BamHI-XbaI-digested expression vector containing the tagged chicken src gene DET1-DET2-spacer-SH2 described in Procedure 1 above. In that vector, the BamHI site is located in between the coding regions for DET2 and SH2, and the XbaI site is located after the 3' end of the SH2 coding region. Thus, the ek-lck SH2 sequence replaced the src SH2 sequence in the above vector. The ligation reaction was used to transform E. coli MM294cI^+. The construct containing […] was confirmed by DNA sequencing (SEQ ID NO: 6) and induced in E. coli strain AR120 as described in Procedure 1 above. A Coomassie-Blue-stained, Western-blot-positive induced protein band with an apparent molecular weight of 17,000 was observed after nalidixic acid induction.
# Cells were lysed at neutral pH by sonication in the presance of lysozyme. After centrifugation, the soluble extract was chromatographed on a Ni^++NTA column. After washing the column with equilibration buffer (Tris buffer pH 8 containing 0.5 M NaCl) and the same buffer containing 15 mM imidazole, the protein was eluted in highly purified form with 25 mM imidazole in equilibration buffer.
# The binding assays for the SH2 domains and pY peptides were performed in an ELISA-based 96 well plate assay. In Millipore 96 well filter plates, hydrophilic Durapore® (pore size 0.65um Cat. No. MADVN6550), was added 2 ul (50% suspension) of Protein-G Sepharose (available from Pharmacia of N.J. Cat. No. 17-0618-01) and either 2 ul of 2 mg/ml of MAB178. […]
# T1 sequence (P06239 127-224 limits assumed): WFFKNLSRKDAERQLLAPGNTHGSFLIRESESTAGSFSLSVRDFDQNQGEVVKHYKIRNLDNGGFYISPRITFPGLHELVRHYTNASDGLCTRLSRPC
compound,measurement,value
"CCCCCCNC(=O)[C@H]1CC[C@H](CNC(=O)c2ccc(C(=O)c3ccc(C(=O)O)cc3)cc2)CC1 [Compound 6, 4-carboxy-benzophenone-4-carboxamido-trans-4-methyl-cyclohexyl-N-hexyl carboxamide]",Ki,50 µM
